Where a name gives a salt, the structure may show the parent alone.
Legend:
[1] = molecular target: T1, LXR beta (Homo sapiens, UniProt P55055); experiment: LanthaScreen TR-FRET LXR beta Coactivator Assay (cell-free binding); conditions: TR-FRET, 12-point curve; read-out: Cell free binding LXRβ IC50
T1 construct: LXR alpha or beta LBD-GST; purchased ThermoFisher PV4658
T1 sequence (P55055 222-460 limits assumed): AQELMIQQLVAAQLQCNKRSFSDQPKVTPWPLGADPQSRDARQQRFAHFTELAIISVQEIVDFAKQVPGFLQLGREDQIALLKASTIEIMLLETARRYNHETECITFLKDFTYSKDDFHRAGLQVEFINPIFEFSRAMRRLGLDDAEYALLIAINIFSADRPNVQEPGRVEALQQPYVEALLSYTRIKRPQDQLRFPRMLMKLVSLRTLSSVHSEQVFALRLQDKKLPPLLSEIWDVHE
Description: (§1) To evaluate the ability of novel LXR agonists to bind to the LXR alpha and beta receptor, a cell-free binding assay was performed using a LanthaScreen TR-FRET LXR alpha Coactivator Assay Kit (ThermoFisher, Cat # PV4655) and LXR beta Coactivator Assay Kit (ThermoFisher, Cat # PV4658). The assay was performed according to the manufacturer's instructions. Briefly, a 3-fold serial dilution of LXR agonists were prepared in 100% DMSO starting at 100 μM (100× of final). Serial dilutions were further diluted 50-fold in nuclear receptor buffer F with 5 mM DTT, and transferred to a 384-well assay plate. Next, Fluorescein-D22, LXR alpha or beta LBD-GST, and Tb anti-GST antibody was sequentially added to 384-well assay plate. The plate was then incubated at rt for 2.5 hours while being protected from light. […] The IC50 values were determined using a four-parameter logistic equation over a 12-point response curve (GraphPad Prism).

[2] = molecular target: T2, LXR alpha (Homo sapiens, UniProt Q13133); experiment: LanthaScreen TR-FRET LXR alpha Coactivator Assay (cell-free binding); conditions: TR-FRET, 12-point curve; read-out: Cell free binding LXRα IC50
T2 construct: LXR alpha or beta LBD-GST; purchased ThermoFisher PV4655
T2 sequence (Q13133 209-447 limits assumed): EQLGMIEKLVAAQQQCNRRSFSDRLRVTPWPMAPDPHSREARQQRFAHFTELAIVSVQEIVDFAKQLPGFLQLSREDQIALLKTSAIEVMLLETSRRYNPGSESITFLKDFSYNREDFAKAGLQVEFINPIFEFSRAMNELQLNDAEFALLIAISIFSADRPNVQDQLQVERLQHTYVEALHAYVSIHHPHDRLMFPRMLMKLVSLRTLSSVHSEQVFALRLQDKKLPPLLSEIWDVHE
Description: as §1

[3] = system: THP1/LXR-Luc cells; experiment: THP1/LXR-Luc luciferase reporter bioassay; type: cell-based; conditions: Homo sapiens, THP-1, 48 hours; for EC50: read-out: Activation of THP1/LXR-Luc cells: EC50; for Emax: relative to maximum activation of free payload 9d, read-out: Activation of THP1/LXR-Luc cells: Fold of activation
Excerpt: The fold activation in the cell-based assays (as described in Example 68, below) was defined based on the maximum activation of the free payload 9d.
A bioassay was developed to assess the activity of LXR agonists after internalization of an agonist or of a ncADC into cells and binding to LXR, a nuclear receptor, using a commercially available LXR reporter (referred to as LXR-Luc) that contains the firefly luciferase gene under control by minimal CMV promoter and tandem repeats of the LXR transcriptional response element. For this assay, a THP1 cell line, which is a human monocytic leukaemia line, was engineered to express full length human Her2 (expressing amino acids M1 through V1255 of accession number NP_004439.2). The subsequent stable cell line was further transduced with a Cignal LXR Luc Reporter (Qiagen, Cat # CLS-7041L). The resulting stable cell line is referred to herein as THP1/Her2/LXR-Luc. The Her2 cell surface expression on THP1/Her2/LXR-Luc cell line was confirmed by FACS (data not shown).
Additionally, a THP1 cell line was transduced with a Cignal LXR Luc Reporter (Qiagen, Cat # CLS-7041L) without the addition of Her2. The resulting stable cell line is referred to herein as THP1/LXR-Luc. All of the antibodies used in the subsequent bioassays were assessed for their ability to internalize and release a payload on the bioassay cell line used.
This example assessed the ability of the LXR agonists provided herein, reference compounds, and anti-Her2 antibody-LXR ncADC to activate LXR. The samples were tested in the THP1/LXR-Luc/Her2 bioassay. For the assay, either THP1/LXR-Luc cells or THP1/LXR-Luc/Her2 cells were seeded onto white 96 well plates at 30,000 cells/well in media containing RPMI supplemented with 10% FBS and pencillin/streptomycin (complete media). Subsequently 3-fold serial dilutions of antibody drug conjugates, unconjugated antibodies, or free payloads were added to the cells at final concentration ranging from 100 nM to 0.01 nM. After 48-hour or 72-hour incubation, luciferase activity was determined after the addition of One-Glo™ reagent (Promega, Cat # E6130) to each well of cells. Relative light units (RLUs) were measured on a Victor luminometer (PerkinElmer) and the EC5o values were determined using a four-parameter logistic equation over a 10-point dose response curve (GraphPad Prism) (FIG. 15). The fold activation is calculated based on the maximum activation of the free payload 9d.

Structure (SMILES)	IC50 [1] [nM]	IC50 [2] [nM]	EC50 [3] [nM]	Emax [3] [%]
C[C@]1(C(=O)NC(=O)[C@@]2(C)CCC[C@]3(C)c4cc(NC(=O)[C@@H](N)CC(=O)O)ccc4CC[C@@H]23)CCC[C@]2(C)c3cc(O)ccc3CC[C@@H]12 [Compound 9n, (3S)-3-Amino-3-{[(4bS,8S,8aR)-8-{[(1S,4aS,10aR)-6-hydroxy-1,4a-dimethyl-1,2,3,4,4a,9,10,10a-octahydrophenanthrene-1-carbonyl]carbamoyl}-4b,8-dimethyl-4b,5,6,7,8,8a,9,10-octahydrophenanthren-3-yl]carbamoyl}propanoic Acid]	< 10	10 to 100	≤ 1	> 75
C[C@]1(C(=O)NC(=O)[C@@]2(C)CCC[C@]3(C)c4cc(O)ccc4CC[C@@H]23)CCC[C@]2(C)c3cc(O)ccc3CC[C@@H]12 [Compound 9a, (1S,4aS,10aR)-6-Hydroxy-N-((1S,4aS,10aR)-6-hydroxy-1,4a-dimethyl-1,2,3,4,4a,9,10,10a-octahydrophenanthrene-1-carbonyl)-1,4a-dimethyl-1,2,3,4,4a,9,10,10a-octahydrophenanthrene-1-carboxamide]	–	–	1 to 10	> 75
O=S(=O)(c1ccccc1)N(CC(F)(F)F)c1ccc(C(O)(C(F)(F)F)C(F)(F)F)cc1 [Compound T0901317, reference compound]	–	–	10 to 100	> 75
CNCC(=O)Nc1ccc2c(c1)[C@@]1(C)CCC[C@](C)(C(=O)NC(=O)[C@@]3(C)CCC[C@]4(C)c5cc(O)ccc5CC[C@@H]34)[C@@H]1CC2 [Compound 9k, (1S,4aS,10aR)—N-((1S,4aS,10aR)-1,4a-Dimethyl-6-(2-(methylamino)acetamido)-1,2,3,4,4a,9,10,10a-octahydrophenanthrene-1-carbonyl)-6-hydroxy-1,4a-dimethyl-1,2,3,4,4a,9,10,10a-octahydrophenanthrene-1-carboxamide; Trifluoroacetic Acid Salt]	< 10	10 to 100	1 to 10	> 75
C[C@]1(C(=O)NC(=O)[C@@]2(C)CCC[C@]3(C)c4cc(NC(=O)CNCC(=O)O)ccc4CC[C@@H]23)CCC[C@]2(C)c3cc(O)ccc3CC[C@@H]12 [Compound 9r, 2-[({[(4bS,8S,8aR)-8-{[(1S,4aS,10aR)-6-Hydroxy-1,4a-dimethyl-1,2,3,4,4a,9,10,10a-octahydrophenanthrene-1-carbonyl]carbamoyl}-4b,8-dimethyl-4b,5,6,7,8,8a,9,10-octahydrophenanthren-3-yl]carbamoyl}methyl)amino]acetic Acid; Trifluoroacetic Acid Salt]	< 10	< 10	10 to 100	> 75
C[C@]1(C(=O)NC(=O)[C@@]2(C)CCC[C@]3(C)c4cc(OCCN)ccc4CC[C@@H]23)CCC[C@]2(C)c3cc(O)ccc3CC[C@@H]12 [Compound 9c, (1S,4aS,10aR)-6-(2-Aminoethoxy)-N-((1S,4aS,10aR)-6-hydroxy-1,4a-dimethyl-1,2,3,4,4a,9,10,10a-octahydrophenanthrene-1-carbonyl)-1,4a-dimethyl-1,2,3,4,4a,9,10,10a-octahydrophenanthrene-1-carboxamide]	< 10	10 to 100	10 to 100	> 75
O=C(O)Cc1cccc(OCCCN(Cc2cccc(C(F)(F)F)c2Cl)CC(c2ccccc2)c2ccccc2)c1 [GW3965]	< 10	< 10	> 100	> 75
C[C@]1(C(=O)NC(=O)[C@@]2(C)CCC[C@]3(C)c4cc(CN)ccc4CC[C@@H]23)CCC[C@]2(C)c3cc(O)ccc3CC[C@@H]12 [Compound 9p, (1S,4aS,10aR)-6-(Aminomethyl)-N-((1S,4aS,10aR)-6-hydroxy-1,4a-dimethyl-1,2,3,4,4a,9,10,10a-octahydrophenanthrene-1-carbonyl)-1,4a-dimethyl-1,2,3,4,4a,9,10,10a-octahydrophenanthrene-1-carboxamide; Trifluoroacetic Acid Salt]	< 10	10 to 100	1 to 10	> 75
C[C@]1(C(=O)NC(=O)[C@@]2(C)CCC[C@]3(C)c4cc(NC(=O)CCN)ccc4CC[C@@H]23)CCC[C@]2(C)c3cc(O)ccc3CC[C@@H]12 [Compound 9i, (1S,4aS,10aR)-6-(3-Aminopropanamido)-N-((1S,4aS,10aR)-6-hydroxy-1,4a-dimethyl-1,2,3,4,4a,9,10,10a-octahydrophenanthrene-1-carbonyl)-1,4a-dimethyl-1,2,3,4,4a,9,10,10a-octahydrophenanthrene-1-carboxamide]	< 10	< 10	10 to 100	25 to 75
CN(C)c1ccc2c(c1)[C@@]1(C)CCC[C@](C)(C(=O)NC(=O)[C@@]3(C)CCC[C@]4(C)c5cc(O)ccc5CC[C@@H]34)[C@@H]1CC2 [Compound 9f, (1S,4aS,10aR)-6-(Dimethylamino)-N-((1S,4aS,10aR)-6-hydroxy-1,4a-dimethyl-1,2,3,4,4a,9,10,10a-octahydrophenanthrene-1-carbonyl)-1,4a-dimethyl-1,2,3,4,4a,9,10,10a-octahydrophenanthrene-1-carboxamide]	< 10	< 10	1 to 10	> 75
C[C@]1(C(=O)NC(=O)[C@@]2(C)CCC[C@]3(C)c4cc(NC(=O)[C@@H](N)Cc5c[nH]cn5)ccc4CC[C@@H]23)CCC[C@]2(C)c3cc(O)ccc3CC[C@@H]12 [Compound 9m, (1S,4aS,10aR)—N-[(1S,4aS,10aR)-6-Hydroxy-1,4a-dimethyl-1,2,3,4,4a,9,10,10a-octahydrophenanthrene-1-carbonyl]-6-[(2S)-2-amino-3-(1H-imidazol-4-yl)propanamido]-1,4a-dimethyl-1,2,3,4,4a,9,10,10a-octahydrophenanthrene-1-carboxamide; trifluoroacetic acid salt]	< 10	10 to 100	1 to 10	> 75
C[C@]1(CNC(=O)[C@@]2(C)CCC[C@]3(C)c4cc(O)ccc4CC[C@@H]23)CCC[C@]2(C)c3cc(O)ccc3CC[C@@H]12 [Compound 9u, (1S,4aS,10aR)—N-{[(1S,4aS,10aR)-6-Hydroxy-1,4a-dimethyl-1,2,3,4,4a,9,10,10a-octahydrophenanthren-1-yl]methyl}-6-hydroxy-1,4a-dimethyl-1,2,3,4,4a,9,10,10a-octahydrophenanthrene-1-carboxamide]	–	–	1 to 10	25 to 75

Reference: patent US12338199B2, “Bis-octahydrophenanthrene carboxamides and protein conjugates thereof” (REGENERON PHARMACEUTICALS, INC., priority 2017, dated 2025)
